Values quoted from earlier work as cited in US20130344087A1, “COMBINATIONS OF ANTI-S1P ANTIBODIES AND SHPINGOLIPID PATHWAY INHIBITORS” (priority 2010, published 2013).

Columns and labels:
[1] = target: T1, ceramide synthase 2 (Homo sapiens, UniProt Q96G23); conditions: human pulmonary artery endothelial cells
T1 construct: endogenous in cells; host or cells: human pulmonary artery endothelial cells
T1 sequence (Q96G23 1-380): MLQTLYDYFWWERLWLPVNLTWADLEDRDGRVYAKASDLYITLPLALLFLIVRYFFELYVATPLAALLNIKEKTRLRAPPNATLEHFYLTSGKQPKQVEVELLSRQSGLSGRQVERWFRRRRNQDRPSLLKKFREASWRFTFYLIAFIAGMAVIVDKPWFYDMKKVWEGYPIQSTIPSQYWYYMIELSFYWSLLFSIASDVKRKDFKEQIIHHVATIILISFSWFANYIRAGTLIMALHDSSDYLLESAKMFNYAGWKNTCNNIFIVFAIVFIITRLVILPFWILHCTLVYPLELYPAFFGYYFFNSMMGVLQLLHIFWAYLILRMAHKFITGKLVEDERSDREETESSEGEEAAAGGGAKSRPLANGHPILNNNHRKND

[2] = target: T2, SPHK 2 (Homo sapiens, UniProt Q9NRA0)
T2 sequence (Q9NRA0 1-654): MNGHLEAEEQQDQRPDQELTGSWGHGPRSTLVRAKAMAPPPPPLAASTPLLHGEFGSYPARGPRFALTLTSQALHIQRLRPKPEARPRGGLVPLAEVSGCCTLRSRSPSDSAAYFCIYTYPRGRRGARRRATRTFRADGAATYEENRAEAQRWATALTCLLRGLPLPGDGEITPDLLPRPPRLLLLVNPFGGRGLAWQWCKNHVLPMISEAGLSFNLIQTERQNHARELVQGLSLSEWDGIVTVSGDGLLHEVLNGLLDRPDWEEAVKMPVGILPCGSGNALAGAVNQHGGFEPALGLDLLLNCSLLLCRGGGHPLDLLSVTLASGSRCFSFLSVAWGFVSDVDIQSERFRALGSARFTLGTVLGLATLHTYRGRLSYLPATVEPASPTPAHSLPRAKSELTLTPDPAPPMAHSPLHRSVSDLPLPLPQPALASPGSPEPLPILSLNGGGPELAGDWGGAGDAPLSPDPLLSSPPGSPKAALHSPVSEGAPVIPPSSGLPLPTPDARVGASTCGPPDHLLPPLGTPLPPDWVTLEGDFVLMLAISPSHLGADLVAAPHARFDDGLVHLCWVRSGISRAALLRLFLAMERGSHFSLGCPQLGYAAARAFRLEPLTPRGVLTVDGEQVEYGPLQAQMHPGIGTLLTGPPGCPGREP

[3] = test system: PKC
[4] = test system: human leukemia U937 cells
[5] = test system: human leukemia Jurkat cells
[6] = test system: leukemic blasts isolated from patients with acute myelogenous leukemia; conditions: blasts from AML patients
[7] = test system: normal peripheral blood mononuclear leukocytes
[8] = test system: AML xenograft tumors; conditions: in vivo
[9] = test system: S1P and ceramide levels
[10] = target: ERK2 (Homo sapiens, UniProt P28482); conditions: at concentrations up to 60 μM
Chain of ERK2 (P28482 whole entry, species assumed): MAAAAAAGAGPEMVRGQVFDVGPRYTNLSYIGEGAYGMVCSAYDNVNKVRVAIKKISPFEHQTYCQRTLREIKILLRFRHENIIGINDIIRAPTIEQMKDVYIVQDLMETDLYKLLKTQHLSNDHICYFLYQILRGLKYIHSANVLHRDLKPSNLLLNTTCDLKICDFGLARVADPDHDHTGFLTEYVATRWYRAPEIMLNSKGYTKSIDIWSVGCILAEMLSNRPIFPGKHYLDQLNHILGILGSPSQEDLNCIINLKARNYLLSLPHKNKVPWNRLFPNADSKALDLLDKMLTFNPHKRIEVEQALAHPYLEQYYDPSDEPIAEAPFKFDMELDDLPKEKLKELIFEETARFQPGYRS

[11] = test system: PI3-kinase; conditions: at concentrations up to 60 μM
[12] = target: PKCα (Homo sapiens, UniProt P17252); conditions: at concentrations up to 60 μM
[13] = test system: human cancer cell lines (T-24, MCF-7, NCl/ADR, and MCF-7NP); conditions: range across cell lines, read-out: IC50, inhibition of proliferation
[14] = test system: leukemia cells

SMILES: CCCCCCCCc1ccc(CCC(N)(CO)CO)cc1.Cl [FTY720, 2-amino-2[2-(4-octylphenyl)ethyl]propane-1,3-diol hydrochloride]
- cellular levels of dihydroceramides, ceramides, sphingosine, and S1P [1]: decreased cellular levels
- inhibition of ceramide synthase 2 [1]: inhibit ceramide synthase 2
- levels of dihydrosphingosine and dihydrosphingosine 1-phosphate (DHS1P) ([1]; mediated by SPHK1 activity): increased levels

SMILES: CCCCCc1ccc(/C=C/[C@H](O)[C@@H](CO)NC)cc1 [SK1-I, (2R,3S,4E)-N-methyl-5-(4′-pentylphenyl)-2-aminopent-4-ene-1,3-diol]
- inhibition of SPHK 2 [2]: does not inhibit
- inhibition of PKC [3]: does not inhibit
- growth and survival of U937 cells [4]: decrease growth and survival
- growth and survival of Jurkat cells [5]: decrease growth and survival
- induction of apoptosis in leukemic blasts [6]: potently induces apoptosis
- effect on normal peripheral blood mononuclear leukocytes [7]: sparing
- growth of AML xenograft tumors [8]: markedly reduces growth
- S1P levels [9]: decreases S1P levels
- levels of proapoptotic precursor ceramide [9]: increases levels

SMILES: Oc1ccc(Nc2nc(-c3ccc(Cl)cc3)cs2)cc1 [SPHK I2, 4-[[4-(4-chlorophenyl)-2-thiazolyl]amino]-phenol]
- inhibition of ERK2 [10]: no inhibition
- inhibition of PI3-kinase [11]: no inhibition
- inhibition of PKCα [12]: no inhibition
- IC50 [13]: 900 to 4600 nM

SMILES: CCCCCCCCCCCCCCC[C@H](O)[C@@H](N)CO [safingol, L-threo-dihydrosphingosine]
- cytotoxicity to leukemia cells [14]: cytotoxic
